Measured values taken from patent US20240400555A1 (Initial Therapeutics, Inc., priority 2023, published 2024).

system: MV-4-11 cells; assay: Cell Viability Assay in MV-4-11 Cells; type: cell-based; settings: Homo sapiens, MV4-11, 72 h
Procedure, shortened: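 Luminescent ATP read-out (CellTiter-Glo) after 72 h compound treatment of MV-4-11 leukaemia cells (7,000 per well, IMDM plus 10% FBS). Values expressed relative to DMSO control and derived by four-parameter non-linear regression.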

| Structure (SMILES) | IC50 |
| --- | --- |
| O=C(c1ccc(-n2nnc3cccnc32)cc1F)N(c1nccc2cc(C#CCO)ccc12)[C@@H]1CCCNC1 [Example 398, (R)-4-(3H-[1,2,3]triazolo[4,5-b]pyridin-3-yl)-2-fluoro-N-(6-(3-hydroxyprop-1-yn-1-yl)isoquinolin-1-yl)-N-(piperidin-3-yl)benzamide] | 71 nM |

same assay, conditions: Homo sapiens, MV4-11, 72 h, MV-4-11 cells, 72 h, Cell-Titer Glo; read-out: IC50

| Structure (SMILES) | IC50 |
| --- | --- |
| COCCn1cc(-c2ccc(C(=O)N(c3nccc4scc(C)c34)[C@@H]3CCCNC3)cc2)nn1 [Example 639, (R)-4-(1-(2-methoxyethyl)-1H-1,2,3-triazol-4-yl)-N-(3-methylthieno[3,2-c]pyridin-4-yl)-N-(piperidin-3-yl)benzamide] | 150 nM |
| Cc1cccc2ccnc(N(C(=O)N3CCCC(CCC(=O)Nc4ccncc4)C3)[C@@H]3CCCNC3)c12 (stereo partly drawn) [Example 497, N-(8-methylisoquinolin-1-yl)-3-(3-oxo-3-(pyridin-4-ylamino)propyl)-N—((R)-piperidin-3-yl)piperidine-1-carboxamide] | 2000 nM |
| Cc1cc(Cl)cc2ccnc(N(C(=O)c3ccc(Nc4ncccn4)cc3F)[C@@H]3CCCNC3)c12 [Example 793, N-(6-chloro-8-methyl-1-isoquinolyl)-2-fluoro-N-[(3R)-3-piperidyl]-4-(pyrimidin-2-ylamino)benzamide] | 200 nM |
| Cc1cc(C)c2c(N(C(=O)c3ccc(-c4nc(C)no4)cc3)[C@@H]3CCCNC3)nccc2c1 [Example 915, N-(6,8-dimethyl-1-isoquinolyl)-4-(3-methyl-1,2,4-oxadiazol-5-yl)-N-[(3R)-3-piperidyl] benzamide] | 86 nM |
| Cn1cc(-c2ccc(C(=O)N(c3cc(/C=C\CCO)ccn3)[C@@H]3CCCNC3)cc2)nn1 [Example 346, N-[4-[(Z)-4-hydroxybut-1-enyl]-2-pyridyl]-4-(1-methyltriazol-4-yl)-N-[(3R)-3-piperidyl] benzamide] | > 10000 nM |
| CCn1cc(-c2ccc(C(=O)N(c3nccc4scc(C)c34)[C@@H]3CCCNC3)cc2)nn1 [Example 859, 4-(1-ethyltriazol-4-yl)-N-(3-methylthieno[3,2-c]pyridin-4-yl)-N-[(3R)-3-piperidyl] benzamide] | 100 nM |
| Cc1nccc(N)c1-c1ccc(C(=O)N(c2nccc3cccc(C)c23)[C@@H]2CCCNC2)c(F)c1 [Example 361, (R)-4-(4-amino-2-methylpyridin-3-yl)-2-fluoro-N-(8-methylisoquinolin-1-yl)-N-(piperidin-3-yl)benzamide] | > 10000 nM |
| Cc1cccc2ccnc(N(C(=O)c3ccc(Nc4nccc(N5CC[C@@H](O)C5)n4)cc3F)[C@@H]3CCCNC3)c12 [Example 684, 2-fluoro-4-((4-((R)-3-hydroxypyrrolidin-1-yl)pyrimidin-2-yl)amino)-N-(8-methylisoquinolin-1-yl)-N—((R)-piperidin-3-yl)benzamide] | 59 nM |
| Cn1cc(-c2ccc(C(=O)N(c3nccc4cc(-c5nnn[nH]5)ccc34)[C@@H]3CCCNC3)c(F)c2)nn1 [Example 405, (R)—N-(6-(1H-tetrazol-5-yl)isoquinolin-1-yl)-2-fluoro-4-(1-methyl-1H-1,2,3-triazol-4-yl)-N-(piperidin-3-yl)benzamide] | 7800 nM |
| Cc1cccc2ccnc(N(C(=O)c3ccc(Nc4ncc(N)cn4)cc3F)[C@@H]3CCCNC3)c12 [Example 410, (R)-4-((5-aminopyrimidin-2-yl)amino)-2-fluoro-N-(8-methylisoquinolin-1-yl)-N-(piperidin-3-yl)benzamide] | 190 nM |
| COCCc1nnc(-c2ccc(C(=O)N(c3nccc4scc(C)c34)[C@@H]3CCCNC3)cc2)s1 [Example 633, (R)-4-(5-(2-methoxyethyl)-1,3,4-thiadiazol-2-yl)-N-(3-methylthieno[3,2-c]pyridin-4-yl)-N-(piperidin-3-yl)benzamide] | 31 nM |
| Cc1noc(-c2ccc(C(=O)N(c3nccc4cc(F)cc(C)c34)[C@@H]3CCCNC3)cc2)n1 [Example 775, (R)—N-(6-fluoro-8-methylisoquinolin-1-yl)-4-(3-methyl-1,2,4-oxadiazol-5-yl)-N-(piperidin-3-yl)benzamide] | 99 nM |
| Cc1ccc(F)c2ccnc(N(C(=O)c3ccc(-c4cn(C)nn4)cc3)[C@@H]3CCCNC3)c12 [Example 656, (R)—N-(5-fluoro-8-methylisoquinolin-1-yl)-4-(1-methyl-1H-1,2,3-triazol-4-yl)-N-(piperidin-3-yl)benzamide] | 180 nM |
| Cc1cccc2ccnc(N(C(=O)c3ccc(Nc4nccc(N(C)C5CCOCC5)n4)cc3F)[C@@H]3CCCNC3)c12 [Example 957, (R)-2-fluoro-4-(4-(methyl(tetrahydro-2H-pyran-4-yl)amino)pyrimidin-2-ylamino)-N-(8-methylisoquinolin-1-yl)-N-(piperidin-3-yl)benzamide] | 23 nM |
| COc1ccc2c(N(C(=O)c3ccc(-c4nnc(C)s4)cn3)[C@@H]3CCCNC3)nccc2c1F [Example 867, N-(5-fluoro-6-methoxy-1-isoquinolyl)-5-(5-methyl-1,3,4-thiadiazol-2-yl)-N-[(3R)-3-piperidyl]pyridine-2-carboxamide] | 970 nM |
| CNC(=O)C#Cc1cc2c(N(C(=O)c3ccc(-c4cn(C)nn4)cc3F)[C@@H]3CCCNC3)nccc2s1 [Example 550, 2-fluoro-N-[2-[3-(methylamino)-3-oxo-prop-1-ynyl]thieno[3,2-c]pyridin-4-yl]-4-(1-methyltriazol-4-yl)-N-[(3R)-3-piperidyl] benzamide] | > 6000 nM |

The next lines start with the values.

| IC50 | Structure (SMILES) |
| --- | --- |
| 220 nM | NS(=O)(=O)c1ccc(-c2cc3c(N(C(=O)c4ccc(-n5nnc6cccnc65)cc4F)[C@@H]4CCCNC4)nccc3s2)cc1 [Example 414, 2-fluoro-N-[(3R)-3-piperidyl]-N-[2-(4-sulfamoylphenyl)thieno[3,2-c]pyridin-4-yl]-4-(triazolo[4,5-b]pyridin-3-yl)benzamide] |
| 600 nM | COC(=O)c1ccc(-c2cc3c(N(C(=O)c4ccc(-n5nnc6cccnc65)cc4F)[C@@H]4CCCNC4)nccc3s2)cc1 [Example 375, methyl 4-[4-[[2-fluoro-4-(triazolo[4,5-b]pyridin-3-yl)benzoyl]-[(3R)-3-piperidyl]amino]thieno[3,2-c]pyridin-2-yl]benzoate] |
| 220 nM | O=Cc1cccc(-c2cc3c(N(C(=O)c4ccc(-n5nnc6cccnc65)cc4F)[C@@H]4CCCNC4)nccc3s2)c1 [Example 467, 2-fluoro-N-[2-(3-formylphenyl)thieno[3,2-c]pyridin-4-yl]-N-[(3R)-3-piperidyl]-4-(triazolo[4,5-b]pyridin-3-yl)benzamide] |
| 240 nM | O=C(c1ccc(-n2nnc3cccnc32)cc1F)N(c1nccc2sc(Cc3cccnc3)cc12)[C@@H]1CCCNC1 [Example 465, 2-fluoro-N-[(3R)-3-piperidyl]-N-[2-(3-pyridylmethyl)thieno[3,2-c]pyridin-4-yl]-4-(triazolo[4,5-b]pyridin-3-yl)benzamide] |
| 430 nM | O=C(c1ccc(-n2nnc3cccnc32)cc1F)N(c1nccc2sc(-c3cc[nH]c(=O)c3)cc12)[C@@H]1CCCNC1 [Example 459, 2-fluoro-N-[2-(2-oxo-1H-pyridin-4-yl)thieno[3,2-c]pyridin-4-yl]-N-[(3R)-3-piperidyl]-4-(triazolo[4,5-b]pyridin-3-yl)benzamide] |
| 210 nM | O=C(c1ccc(-n2nnc3cccnc32)cc1F)N(c1nccc2sc(-c3csc(CO)n3)cc12)[C@@H]1CCCNC1 [Example 427, 2-fluoro-N-[2-[2-(hydroxymethyl)thiazol-4-yl]thieno[3,2-c]pyridin-4-yl]-N-[(3R)-3-piperidyl]-4-(triazolo[4,5-b]pyridin-3-yl)benzamide] |
| 1600 nM | O=C(c1ccc(-n2nnc3cccnc32)cc1F)N(c1nccc2cc(-c3nn[nH]c3CO)ccc12)[C@@H]1CCCNC1 [Example 530, (R)-4-(3H-[1,2,3]triazolo[4,5-b]pyridin-3-yl)-2-fluoro-N-(6-(5-(hydroxymethyl)-1H-1,2,3-triazol-4-yl)isoquinolin-1-yl)-N-(piperidin-3-yl)benzamide] |
| 640 nM | C#Cc1cc2c(N(C(=O)c3ccc(-n4nnc5cccnc54)cc3F)[C@@H]3CCCNC3)nccc2s1 [Example 382, N-(2-ethynylthieno[3,2-c]pyridin-4-yl)-2-fluoro-N-[(3R)-3-piperidyl]-4-(triazolo[4,5-b]pyridin-3-yl)benzamide] |
| 380 nM | CC(C)n1cc(-c2cc3c(N(C(=O)c4ccc(-n5nnc6cccnc65)cc4F)[C@@H]4CCCNC4)nccc3s2)cn1 [Example 437, (R)-4-(3H-[1,2,3]triazolo[4,5-b]pyridin-3-yl)-2-fluoro-N-(2-(1-isopropyl-1H-pyrazol-4-yl)thieno[3,2-c]pyridin-4-yl)-N-(piperidin-3-yl)benzamide] |
| 2100 nM | O=C(O)c1nc(-c2cc3c(N(C(=O)c4ccc(-n5nnc6cccnc65)cc4F)[C@@H]4CCCNC4)nccc3s2)cs1 [Example 502, 4-[4-[[2-fluoro-4-(triazolo[4,5-b]pyridin-3-yl)benzoyl]-[(3R)-3-piperidyl]amino]thieno[3,2-c]pyridin-2-yl]thiazole-2-carboxylic acid] |
| 920 nM | Cn1cc(-c2ccc(C(=O)N(c3nccc4sc(-c5ccc(C(=O)Nc6ccccc6)cc5)cc34)[C@@H]3CCCNC3)c(F)c2)nn1 [Example 523, 2-fluoro-4-(1-methyltriazol-4-yl)-N-[2-[4-(phenylcarbamoyl)phenyl]thieno[3,2-c]pyridin-4-yl]-N-[(3R)-3-piperidyl]benzamide] |
| 52 nM | NC(=O)c1ccc(-c2cc3c(N(C(=O)c4ccc(-n5nnc6cccnc65)cc4F)[C@@H]4CCCNC4)nccc3s2)cc1 [Example 448, N-[2-(4-carbamoylphenyl)thieno[3,2-c]pyridin-4-yl]-2-fluoro-N-[(3R)-3-piperidyl]-4-(triazolo[4,5-b]pyridin-3-yl)benzamide] |
| 640 nM | O=C(c1ccc(-n2nnc3cccnc32)cc1F)N(c1nccc2sc(-c3ccccc3)cc12)[C@@H]1CCCNC1 [Example 464, 2-fluoro-N-(2-phenylthieno[3,2-c]pyridin-4-yl)-N-[(3R)-3-piperidyl]-4-(triazolo[4,5-b]pyridin-3-yl)benzamide] |
